Patent US11845724B2, “USP30 inhibitors and uses thereof” (Vincere Biosciences, Inc., priority 2019, dated 2023)
Like-named read-outs stand apart in the source and are kept apart here.

What was measured:
USP30 [1] = biological target: T1, USP30 (Homo sapiens (Human), UniProt Q70CQ3); assay: Dundee MALDI-TOF mass spectrometry assay (% DUB activity remaining at 1 μM); format: biochemical; details: % DUB activity remaining at compound concentration of 1 μM; avg; read-out: Dundee % Activity at 1 μM (avg in vitro MS assay)
Protocol: Compounds were tested in a MALDI-TOF assay based on the paper by Ritorto et al. (Ritorto et al. Screening of DUB activity and specificity by MALDI-TOF mass spectrometry. Nat. Commun. 5:4763).
USP30 (25 ng/μl) tested against K48-linked diubiquitin (5.6 μM). USP30 was diluted in a buffer containing 40 mM Tris, 0.01% BSA, 1 mM DTT and K48 in 40 mM Tris, 0.01% BSA.
The compounds were pre-incubated with the USP30 for 5 mins at room temp before the K48 dimer addition. The assay mixture was then incubated for 45 mins at room temp. The assay was stopped by the addition of TFA to a final concentration of 2% (v/v).
Acidified samples of the DUB assays were mixed with 0.5 mM 15N-ubiquitin and then with one part of 2% (v/v) TFA and one part of 2,5 DHAP matrix solution (7.6 mg of 2,5 DHAP in […] ethanol and […] of an aqueous 12 mg ml 1 diammonium hydrogen citrate). Then 250 nl of these solutions were spotted onto an MTP AnchorChip 1,536 TF and this is analysed on the Bruker rapifleX MALDI-TOF.
Table 22 presents the Dundee MALDI-TOF values expressed as % DUB activity remaining at a compound concentration of 1 μM.

[2] = biological target: recombinant USP30 (amino acids 57-517 of the human sequence) (Homo sapiens (Human), UniProt Q70CQ3); assay: In vitro USP30 biochemical assay (Ubiquitin-Rhodamine)
Protocol: In vitro biochemical assay to establish the potency of compounds for USP30 inhibition: a 384-well plate assay using a fluorophore tagged substrate of USP30 was used for in vitro screening of compounds. Each compound was tested at 10 different concentrations (0.5 to 10,000 nM) in duplicate wells. Compounds were pre-incubated at 25° C. for 30 min in an assay buffer consisting of 20 mM Tris/HCl, pH8.0, 1 mM GSH, 0.01% Triton X-100, 0.03% BGG and 1.5 nM recombinant USP30 (amino acids 57-517 of the human sequence with a C-terminal 6-His tag). Following the pre-incubation, Ubiquitin-Rhodamine substrate dissolved in the assay buffer was added at the final concentration of 25 nM to each well and plates were incubated at 25° C. for an additional 75 minutes. The reaction was stopped by adding 10 mM citric acid and fluorescence was read using excitation wavelength 485 nm, emission of 535 nm. Data were analyzed using Graph Pad Prism software with a four-parameter (floating slope) fit to log concentration data to determine IC50s.

USP30 [3] = biological target: T1, USP30; assay: Dundee MALDI-TOF mass spectrometry assay (IC50); format: biochemical; details: USP30 25 ng/μl, K48-linked diubiquitin 5.6 μM, avg, read-out: Dundee IC50 μM (avg in vitro MS assay)
In short: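 USP30 (25 ng/μl) preincubated with compound 5 min at RT in Tris/BSA/DTT buffer, then K48-linked diubiquitin (5.6 μM) added for 45 min at RT. Stopped with 2% TFA; cleavage quantified by MALDI-TOF mass spectrometry to give IC50.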

[4] = USP30 IC50 μM (avg), Ubiquitin-Rhodamine substrate 25 nM, 1.5 nM recombinant USP30
[5] = read-out: USP30 IC50 μM (avg), Ubiquitin-Rhodamine substrate 25 nM, 1.5 nM recombinant USP30

Sequence of recombinant USP30 (amino acids 57-517 of the human sequence) (Q70CQ3 57-517): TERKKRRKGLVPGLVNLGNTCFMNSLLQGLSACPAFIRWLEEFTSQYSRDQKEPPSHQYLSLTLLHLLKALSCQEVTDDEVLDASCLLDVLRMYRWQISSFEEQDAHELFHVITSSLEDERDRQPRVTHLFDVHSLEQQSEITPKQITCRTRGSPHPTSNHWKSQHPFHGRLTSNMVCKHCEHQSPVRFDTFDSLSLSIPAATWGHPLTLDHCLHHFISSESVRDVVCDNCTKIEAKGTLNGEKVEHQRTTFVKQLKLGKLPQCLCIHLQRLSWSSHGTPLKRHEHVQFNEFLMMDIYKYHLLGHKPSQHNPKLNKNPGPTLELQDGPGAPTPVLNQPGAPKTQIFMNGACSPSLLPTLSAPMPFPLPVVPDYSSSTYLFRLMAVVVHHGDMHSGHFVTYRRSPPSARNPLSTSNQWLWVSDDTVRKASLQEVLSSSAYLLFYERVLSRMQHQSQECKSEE
T1 sequence (Q70CQ3 whole entry): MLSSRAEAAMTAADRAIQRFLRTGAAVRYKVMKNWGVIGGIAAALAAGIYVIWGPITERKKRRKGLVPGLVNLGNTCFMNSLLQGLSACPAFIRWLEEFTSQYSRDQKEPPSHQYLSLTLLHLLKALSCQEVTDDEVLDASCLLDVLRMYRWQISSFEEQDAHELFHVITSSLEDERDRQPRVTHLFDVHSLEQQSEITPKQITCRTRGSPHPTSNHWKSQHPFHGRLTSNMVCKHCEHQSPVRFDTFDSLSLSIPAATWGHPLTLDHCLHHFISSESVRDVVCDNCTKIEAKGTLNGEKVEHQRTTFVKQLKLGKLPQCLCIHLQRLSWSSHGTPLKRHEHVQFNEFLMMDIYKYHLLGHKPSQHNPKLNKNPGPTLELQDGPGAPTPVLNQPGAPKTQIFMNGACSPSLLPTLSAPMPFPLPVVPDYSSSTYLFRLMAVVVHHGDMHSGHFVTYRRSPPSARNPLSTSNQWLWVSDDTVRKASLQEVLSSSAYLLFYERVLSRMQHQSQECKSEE

activity at 1 µM (USP30 [1]) | IC50 [2, 4] | IC50 [2, 5] | IC50 (USP30 [3]) | Compound
 | 0.05 to 1 µM |  | < 0.05 µM | CCNS(=O)(=O)c1ccc(NC(=O)[C@H](Cc2ccccc2)NC(=O)c2ccc(F)cc2)cc1F [Compound I-155, (S)-N-(1-(4-(N-ethylsulfamoyl)-3-fluorophenylamino)-1-oxo-3-phenylpropan-2-yl)-4-fluorobenzamide]
 | 0.05 to 1 µM |  | < 0.05 µM | O=C(N[C@@H](Cc1ccccc1)C(=O)Nc1ccc(S(=O)(=O)NCCO)cc1)c1ccc(F)cc1 [Compound I-138, (S)-4-fluoro-N-(1-(4-(N-(2-hydroxyethyl)sulfamoyl)phenylamino)-1-oxo-3-phenylpropan-2-yl)benzamide]
 |  | < 0.05 µM | < 0.05 µM | COCC(C)(C)NS(=O)(=O)c1ccc(NC(=O)[C@H](Cc2ccccc2)NC(=O)c2ccc(F)cc2)cc1 [Compound I-134, (S)-4-fluoro-N-(1-(4-(N-(1-methoxy-2-methylpropan-2-yl)sulfamoyl)phenylamino)-1-oxo-3-phenylpropan-2-yl)benzamide]
 | 0.05 to 1 µM |  | 0.05 to 1 µM | O=C(N[C@@H](Cc1ccccn1)C(=O)Nc1ccc(S(=O)(=O)NC2COC2)cc1)c1ccc(F)cc1 [Compound I-140, (S)-4-fluoro-N-(1-(4-(N-oxetan-3-ylsulfamoyl)phenylamino)-1-oxo-3-(pyridin-2-yl)propan-2-yl)benzamide]
 |  | < 0.05 µM | < 0.05 µM | CC(C)(CN1CCOCC1)NS(=O)(=O)c1ccc(NC(=O)[C@H](Cc2ccccc2)NC(=O)c2ccc(F)cc2)cc1 [Compound I-162, (S)-4-fluoro-N-(1-(4-(N-(2-methyl-1-morpholinopropan-2-yl)sulfamoyl)phenylamino)-1-oxo-3-phenylpropan-2-yl)benzamide]
 | 0.05 to 1 µM |  | 0.05 to 1 µM | O=C(N[C@@H](Cc1ccccc1)C(=O)Nc1ccc(S(=O)(=O)NC23CC(C2)C3)cc1)c1cccc(F)c1 [Compound I-95, (S)-N-(1-(4-(N-bicyclo[1.1.1]pentan-1-ylsulfamoyl)phenylamino)-1-oxo-3-phenylpropan-2-yl)-3-fluorobenzamide]
 | 0.05 to 1 µM |  | 0.05 to 1 µM | O=C(N[C@@H](Cc1ccccc1)C(=O)Nc1ccc(S(=O)(=O)NC2COC2)cc1)c1cccc(F)c1 [Compound I-94, (S)-3-fluoro-N-(1-(4-(N-oxetan-3-ylsulfamoyl)phenylamino)-1-oxo-3-phenylpropan-2-yl)benzamide]
 |  | > 10 µM | > 10 µM | O=C(N[C@H](Cc1ccccc1)C(=O)Nc1ccc(S(=O)(=O)NC23CC(C2)C3)cc1)c1ccc(F)cc1 [Compound I-99, (R)-N-(1-(4-(N-bicyclo[1.1.1]pentan-1-ylsulfamoyl)phenylamino)-1-oxo-3-phenylpropan-2-yl)-4-fluorobenzamide]
 | 0.05 to 1 µM |  | 0.05 to 1 µM | CCNS(=O)(=O)c1ccc(NC(=O)[C@H](Cc2ccccc2)NC(=O)c2ccc(F)cc2)cc1OC [Compound I-146, (S)-N-(1-(4-(N-ethylsulfamoyl)-3-methoxyphenylamino)-1-oxo-3-phenylpropan-2-yl)-4-fluorobenzamide]

Second part, the compound before the results:

Compound | activity at 1 µM (USP30 [1]) | IC50 [2, 4] | IC50 [2, 5] | IC50 (USP30 [3])
CC(C)(C)NS(=O)(=O)c1ccc(NC(=O)[C@H](Cc2ccccc2)NC(=O)OC2CCOCC2)cc1 [Compound I-43, (S)-tetrahydro-2H-pyran-4-yl 1-(4-(N-tert-butylsulfamoyl)phenylamino)-1-oxo-3-phenylpropan-2-ylcarbamate] | 50 to 75% | 1 to 10 µM |  | 
CC(C)(C)NS(=O)(=O)c1ccc(NC(=O)C2Cc3ccccc3N2C(=O)c2ccc(F)cc2)cc1 (stereo not shown) [Compound I-53, N-(4-(N-tert-butylsulfamoyl)phenyl)-1-(4-fluorobenzoyl)indoline-2-carboxamide] | > 75% |  | > 10 µM | 
CC(C)(C)NS(=O)(=O)c1ccc(NC(=O)C2Cc3cnccc3N2C(=O)c2ccc(F)cc2)cc1 (stereo not shown) [Compound I-55, N-(4-(N-tert-butylsulfamoyl)phenyl)-1-(4-fluorobenzoyl)-2,3-dihydro-1H-pyrrolo[3,2-c]pyridine-2-carboxamide] | > 75% |  | > 10 µM | 
CC(C)(C)NS(=O)(=O)c1ccc(N2C(=O)C(NC(=O)c3ccc(F)cc3)Cc3ccccc32)cc1 (stereo not shown) [Compound I-20, N-(1-(4-(N-tert-butylsulfamoyl)phenyl)-2-oxo-1,2,3,4-tetrahydroquinolin-3-yl)-4-fluorobenzamide] | > 75% |  | > 10 µM | 
CC(C)(C)NS(=O)(=O)c1ccc(NC(=O)C2Cc3ncccc3CN2C(=O)c2ccc(F)cc2)cc1 (stereo not shown) [Compound I-60, N-(4-(N-tert-butylsulfamoyl)phenyl)-6-(4-fluorobenzoyl)-5,6,7,8-tetrahydro-1,6-naphthyridine-7-carboxamide] | > 75% |  | > 10 µM | 
CC(C)(C)NS(=O)(=O)c1ccc(N2Cc3ccccc3CC(NC(=O)c3ccc(F)cc3)C2=O)cc1 (stereo not shown) [Compound I-21, N-(2-(4-(N-tert-butylsulfamoyl)phenyl)-3-oxo-2,3,4,5-tetrahydro-1H-benzo[c]azepin-4-yl)-4-fluorobenzamide] | > 75% |  | > 10 µM | 
CC(C)(C)NS(=O)(=O)c1ccc(NC(=O)C2Cc3cccnc3CN2C(=O)c2ccc(F)cc2)cc1 (stereo not shown) [Compound I-59, N-(4-(N-tert-butylsulfamoyl)phenyl)-7-(4-fluorobenzoyl)-5,6,7,8-tetrahydro-1,7-naphthyridine-6-carboxamide] | > 75% | 1 to 10 µM |  | 
CC(C)(C)OCCNS(=O)(=O)c1ccc(NC(=O)[C@H](Cc2ccccc2)NC(=O)c2ccc(F)cc2)cn1 [Compound I-114, (S)-N-(1-(6-(N-(2-tert-butoxyethyl)sulfamoyl)pyridin-3-ylamino)-1-oxo-3-phenylpropan-2-yl)-4-fluorobenzamide] |  | 0.05 to 1 µM |  | 0.05 to 1 µM
CCNS(=O)(=O)c1cccc2c(NC(=O)[C@H](Cc3ccccc3)NC(=O)c3ccc(F)cc3)cccc12 [Compound I-125] |  | 0.05 to 1 µM |  | < 0.05 µM
CC(C)(C)NS(=O)(=O)c1ccc(NC(=O)[C@H](Cc2ccccc2)NC(=O)c2ccc(F)cc2)c(F)c1 [Compound I-158, (S)-N-(1-(4-(N-tert-butylsulfamoyl)-2-fluorophenylamino)-1-oxo-3-phenylpropan-2-yl)-4-fluorobenzamide] |  |  | < 0.05 µM | < 0.05 µM
COc1cc(NC(=O)[C@H](Cc2ccccc2)NC(=O)c2ccc(F)cc2)ccc1S(=O)(=O)NCCO [Compound I-152, (S)-4-fluoro-N-(1-(4-(N-(2-hydroxyethyl)sulfamoyl)-3-methoxyphenylamino)-1-oxo-3-phenylpropan-2-yl)benzamide] |  | 0.05 to 1 µM |  | < 0.05 µM
COc1cc(NC(=O)[C@H](Cc2ccccc2)NC(=O)c2ccc(F)cc2)ccc1S(=O)(=O)NC1CCOCC1 [Compound I-150, (S)-4-fluoro-N-(1-(3-methoxy-4-(N-(tetrahydro-2H-pyran-4-yl)sulfamoyl)phenylamino)-1-oxo-3-phenylpropan-2-yl)benzamide] |  | 0.05 to 1 µM |  | < 0.05 µM
O=C(N[C@@H](Cc1ccccc1)C(=O)Nc1ccc(S(=O)(=O)NCCCN2CCOCC2)nc1)c1ccc(F)cc1 [Compound I-112, (S)-4-fluoro-N-(1-(6-(N-(3-morpholinopropyl)sulfamoyl)pyridin-3-ylamino)-1-oxo-3-phenylpropan-2-yl)benzamide] |  | 0.05 to 1 µM |  | 0.05 to 1 µM
O=C(N[C@@H](Cc1ccccc1)C(=O)Nc1ccc(S(=O)(=O)NCCN2CCOCC2)nc1)c1ccc(F)cc1 [Compound I-111, (S)-4-fluoro-N-(1-(6-(N-(2-morpholinoethyl)sulfamoyl)pyridin-3-ylamino)-1-oxo-3-phenylpropan-2-yl)benzamide] |  | 0.05 to 1 µM |  | 0.05 to 1 µM
CCNS(=O)(=O)N1CCCc2c(NC(=O)[C@H](Cc3ccccc3)NC(=O)C3CCCCC3)cccc21 [Compound I-126, (S)-N-(1-(1-(N-ethylsulfamoyl)-1,2,3,4-tetrahydroquinolin-5-ylamino)-1-oxo-3-phenylpropan-2-yl)cyclohexanecarboxamide] |  |  | > 10 µM | 1 to 10 µM
CCNS(=O)(=O)c1ccc(NC(=O)[C@H](Cc2cccnc2)N(C)C(=O)c2ccc(F)cc2)cc1 [Compound I-90, (S)-N-(1-(4-(N-ethylsulfamoyl)phenylamino)-1-oxo-3-(pyridin-3-yl)propan-2-yl)-4-fluoro-N-methylbenzamide] |  | 1 to 10 µM |  | > 10 µM
COCCNS(=O)(=O)c1ccc(NC(=O)[C@H](Cc2ccccc2)NC(=O)c2ccc(F)cc2)cc1OC [Compound I-151, (S)-4-fluoro-N-(1-(3-methoxy-4-(N-(2-methoxyethyl)sulfamoyl)phenylamino)-1-oxo-3-phenylpropan-2-yl)benzamide] |  | 0.05 to 1 µM |  | < 0.05 µM
